{"source": "patent US7695426B2", "about": "“Methods for enhancing viability” (Biological Resources Pty Ltd, priority 2003, dated 2010)", "key": {"mouse embryos [1]": {"test_system": "mouse embryos", "assay": "Co-treatment of embryos in vitro with PAF and PFT-α", "assay_type": "cell-based", "settings": "zygotes cultured 96 h; 10 nM PAF, 10 μM PFT-α or both"}, "2-cell embryos": {"test_system": "2-cell embryos", "assay": "Intracellular calcium response of embryos to exogenous PAF", "assay_type": "cell-based, mouse", "settings": "IVF embryos in comparison to fresh and ISF embryos", "description": "Mammalian embryos express a receptor for PAF, and activation of this receptor elicits a transient increase in the embryo's intracellular calcium concentration (Emerson et al., 2000, Journal of Biological Chemistry 275, 21905-21913; Lu et al., 2003, Biology of Reproduction 69, 106-116).\nMouse embryos were incubated with exogenous PAF and the intracellular Ca^2+ concentration was determined as described by Emerson et al. (2000). Embryos tested were: (i) those fertilized in the reproductive tract and collected fresh from the reproductive tract (fresh); (ii) embryos produced by IVF and cultured in vitro (IVF); and (iii) embryos fertilized in the reproductive tract and cultured in vitro (ISF). […] This reduced signaling correlated with poor development of the embryos in vitro."}, "p53 mRNA": {"test_system": "p53 mRNA", "assay": "RT-PCR of p53 mRNA in embryos incubated in α-amanitin", "assay_type": "cell-based, mouse", "description": "RT-PCR was used to compare the expression of p53 mRNA in fresh p53+/+ mouse embryos (embryos fertilised and grown in the reproductive tract) and IVF mouse embryos. For IVF embryos, the model uses a graded range of stress induced by IVF and culture under conditions of increasing growth factor deprivation. Primers were designed (5′-GGAGTCTTCCAGTGTGATGAT, 3′-GGG ACA GCC MG TCT GTT ATG) that successfully produced an RT-PCR product of the correct size (429 bp) and sequence (SUPAMAC) for the p53 gene. Groups of 5 embryos, oocytes or sperm were pooled. mRNA was extracted and RT-PCR performed.\np53 product was detected in oocytes, zygotes, 8-cell, morulae and blastocyst stage mouse embryos collected from the reproductive tract but not in epididymal sperm. In 2-cell embryos detection was variable. […] Quantitative RT-PCR of p53 was performed to compare expression of p53 mRNA in fresh and IVF embryos. Equivalent levels of RNA were found in the oocyte, zygote, morulae and blastocyst of fresh embryos; the levels were 50-70% lower in late 2-cell embryos than in other development stages (data not shown)."}, "bovine sperm": {"test_system": "bovine sperm", "assay": "Treatment of bovine sperm with PFT-α before insemination, blastocyst formation", "assay_type": "cell-based", "settings": "bovine sperm incubated 1 h with 0.3-3 μM PFT-α before insemination; Day 7; compared to control", "description": "All embryo manipulations were performed at 39° C. except for oocyte harvesting and activation which was performed at room temperature. All procedures were performed in 4-well Nunc dishes in Tissue Culture Medium 199 (TCM-199) supplemented with HEPES (TCM-H TCM-199; Gibco™ BRL/Life Technologies, Melbourne, Victoria, Australia) without mineral oil overlay, unless otherwise indicated.\nBovine ovaries collected from 2 different local slaughterhouse, transported at 30-35° C. to the laboratory and washed on 39° C. physiologic saline (0.9% NaCl; Baxter Healthcare Pty., Ltd., NSW, Australia). Ovarian antral follicles (2-8 mm) were aspirated using an 18-gauge needle and collected into TCM-H with 30 IU ml^−1 heparin (Pharmacia & Upjohn Pty., Ltd., Perth, Wash., Australia) and 2% gamma radiated fetal bovine serum (FBS; JRH Biosciences Pty., Ltd., Melbourne, Victoria, Australia). Cumulus oocyte complexes (COCs) showing an even cytoplasm and surrounded by at least three layers of compact cumulus cells were collected from the follicular fluid. […]\nFrozen/thawed semen from an elite bull was placed on a Percoll gradient and centrifuged at 600×g for 20 minutes. The top layers were removed and the sperm concentration and motility of the pellet determined. […]\nThe proportion of blastocysts were determined on Day 7 (Day 0=fertilization). […]"}, "mouse embryos [2]": {"test_system": "mouse embryos", "assay": "Combined treatment of IGF-II and PFT-α on embryo development in vitro", "assay_type": "cell-based", "settings": "IVF zygotes cultured 96 h, 10 ng/ml IGF-II, 1 μM PFT-α, or both; for Cells/blastocyst: control 23 ± 4; for % blastocyst: control 31", "description": "The IGF-II used was human recombinant insulin-like growth factor-II (expressed in E. Coli) (Sigma Chemical Co.), reconstituted with a minimal volume of 0.1M acetic acid and immediately diluted with modified-HTF to a concentration of 50 μg/ml. Aliquots were frozen at −70° C. Upon thawing, aliquots were serially diluted with modified-HTF.\nZygotes produced by IVF from F1 crosses were prepared and cultured as described above, with 1 embryo per […] drop of media. Zygotes were cultured for 96 h in modified HTFM medium individually in 10 μl drops. The proportion of embryos developing to morphologically normal blastocysts, the number of cells in each blastocyst and the number of apoptotic cells per blastocyst were assessed in media containing 10 ng/ml IGF-II, 1 μM PFT-α, or IGF-II+PFT-α."}, "mouse embryos [3]": {"test_system": "mouse embryos", "assay": "Culture of mouse zygotes (IVF or ISF) with PFT-α as media supplement", "assay_type": "cell-based", "description": "(§1) Mouse IVF: Females superovulated by 5 IU pregnant mare serum gonadotrophin followed 48 h later by 5 IU human chorionic gonadotrophin. Oocytes were collected 13-15 h after hCG and washed. Epididymal sperm collected from the epididymides of male mice (14-35 weeks old) of proven fertility is immediately placed into 1 ml of medium. Sperm were allowed to disperse for 10 min at 37° C. and were then added to the oocytes at 0.1×10^6/ml. Fertilisation was performed in a final volume of 1 ml of medium. Oocytes and sperm were cultured together for 5 h at 37° C. in 5% CO2 in air. The oocytes were then retrieved, washed in Hepes-buffered HTF and their fertilisation status assessed by microscopic detection of pronuclei and polar bodies. Fertilised oocytes were transferred to drops of modified HTF medium under mineral oil and their development status assessed each 24 h.\nA recently developed selective inhibitor of p53, pifithrin-α (PFTα [2-(2-imino-4,5,6,7-tetrahydrobenzothiazol-3-yl)-1-p-tolylethanone], Sigma-Aldrich), is a small molecule that reversibly blocks p53-dependent transcriptional activation and apoptosis (Komarov et al., 1999, Science 285, 1733-1737). PFT-α was prepared initially by solubilising to a concentration of 10 mM in dimethylsolfoxide and diluted to working concentrations.\nZygotes were produced by either fertilization in vitro (IVF) or fertilisation in situ (ISF) and cultured for 96 hours in modified HTFM medium individually in […] drops. PFT-α was added as a media supplement over the dose range […]. The proportion of embryos developing to the blastocyst stage (FIG. 3A), the number of cells per normal blastocyst and the proportion of cells undergoing apoptosis (FIG. 3B), were assessed."}, "sperm and oocytes": {"test_system": "sperm and oocytes", "assay": "Treatment of mouse gametes with PFT-α during capacitation and fertilisation in vitro", "assay_type": "cell-based", "description": "as §1\nPFT-α preparation, IVF and embryo culture was as previously described. The study used F1 (C57Bl6j×CBAj) males and females. PFT-α was added to sperm during its capacitation and during the process of fertilisation in vitro.\n4-5 h after the addition of sperm to oocytes, the oocytes were washed free of sperm and PFT-α. They were examined for the presence of 2 pronuclei as evidence of successful fertilisation. Successfully fertilised oocytes were placed in culture in 10 μL of modified HTF media, 1 zygote per 10 μL drop. They were culture for 120 h and the proportion forming morphologically normal blastocysts were recorded. The blastocysts were fixed in 2% formaldehyde and stained with 5 μG Hoechst stain/ml. […]\nThe effect of dose of PFT-A on the proportion of oocytes fertilised, the proportion of zygotes that developed to morphological blastocyst and the number of cells in each blastocysts were recorded and are shown in FIGS. 4A, B and C respectively. The effect of PFT-A dose was assessed using the SPSS statistical package. The fertilisation rate and development rate were assessed using binary logistic regression analysis while cell numbers were assessed by univariate analysis using the general linear model."}, "[4]": {"settings": "gametes treated with PFT-α, zygotes cultured 120 h, P<0.05"}}, "data": [{"compound": "1 hexadecyl/octadecyl-2-acetyl-sn-glyceryl-3-phosphocholine [PAF]", "values": [{"measurement": "embryo viability as proportion of embryos that developed to the blastocyst stage", "setting": "mouse embryos [1]", "value": "increase in embryo viability"}, {"measurement": "proportion of 2-cell IVF embryos that responded to exogenous PAF (intracellular calcium)", "setting": "2-cell embryos", "value": "substantially reduced"}]}, {"compound": "CC[C@H](C)[C@@H]1NC(=O)CNC(=O)[C@@H]2Cc3c([nH]c4cc(O)ccc34)[S+]([O-])C[C@@H](NC(=O)CNC1=O)C(=O)N[C@@H](CC(N)=O)C(=O)N1C[C@H](O)C[C@H]1C(=O)N[C@@H]([C@@H](C)[C@@H](O)CO)C(=O)N2", "note": "(stereo in doubt) [α-amanitin]", "values": [{"measurement": "p53 mRNA in embryos after incubation from the 2-cell stage", "setting": "p53 mRNA; 2-cell embryos incubated in α-amanitin, after 24 h", "value": "p53 mRNA negative"}, {"measurement": "qualitative expression of p53 RNA in zygotes", "setting": "p53 mRNA; zygotes incubated in α-amanitin", "value": "no effect"}]}, {"compound": "Cc1ccc(C(=O)Cn2c3c(sc2=N)CCCC3)cc1", "note": "[PFT-α, 2-(2-imino-4,5,6,7-tetrahydrobenzothiazol-3-yl)-1-p-tolylethanone]", "values": [{"measurement": "proportion of resulting embryos that developed to morphological blastocysts", "setting": "bovine sperm", "value": "significant positive effect"}, {"measurement": "embryo viability as proportion of embryos that developed to the blastocyst stage", "setting": "mouse embryos [1]", "value": "increase in embryo viability"}, {"measurement": "Cells/blastocyst", "setting": "mouse embryos [2]", "value": "32 ± 4"}, {"measurement": "% blastocyst", "setting": "mouse embryos [2]", "value": 44, "unit": "%"}, {"measurement": "proportion of IVF embryos that developed to the blastocyst stage", "setting": "mouse embryos [3]; IVF zygotes cultured 96 h individually, PFT-α dose range 0.1-20 μM", "value": "significant quadratic effect"}, {"measurement": "embryo survival", "setting": "mouse embryos [3]; between 0.1 and 20 μM added to embryos in culture", "value": "significant effect on increasing embryo survival"}, {"measurement": "number of cells per normal blastocyst", "setting": "mouse embryos [3]; both ISF and IVF zygotes, cultured 96 h, PFT-α dose range 0.1-20 μM", "value": "significant improvement"}, {"measurement": "number of cells undergoing apoptosis", "setting": "mouse embryos [3]; both ISF and IVF zygotes, cultured 96 h, PFT-α dose range 0.1-20 M (so in the source)", "value": "significant decrease"}, {"measurement": "fertilisation rate (proportion of oocytes fertilised)", "setting": "sperm and oocytes; PFT-α present during sperm capacitation and IVF, P<0.01", "value": "dose-dependent increase"}, {"measurement": "mean number of cells present in each embryo (blastocyst)", "setting": "sperm and oocytes; [4]", "value": "dose-dependent significant increase"}, {"measurement": "proportion of zygotes that developed to the blastocyst stage", "setting": "sperm and oocytes; [4]", "value": "further dose-dependent increase"}]}, {"compound": "IGF-II: human recombinant insulin-like growth factor-II (expressed in E. Coli), Sigma Chemical Co.", "values": [{"measurement": "Cells/blastocyst", "setting": "mouse embryos [2]", "value": "29 ± 2"}, {"measurement": "% blastocyst", "setting": "mouse embryos [2]", "value": 42, "unit": "%"}]}]}
